Where two headings read alike, the source gives them in different places.
Legend:
[1] = system: HCT-116 colorectal cancer cells; test: MTT cell viability assay; conditions: read-out: IC50 values (μM), cell viability
Procedure: (§2) Twenty-five μl of 3-(4,5-Dimethylthiazolyl)-2,5-diphenyltetrazolium bromide (MTT, Sigma) was added to each sample and incubated for 3.5 hours. After this, 100 μl of N, N-dimethylformamide (Sigma) solubilization solution was added to each well. […] Half-Maximal inhibitory concentrations (IC50) were determined using Sigma Plot 9.0 software (Systat Software Inc., San Jose, CA).

[2] = system: ARH77 multiple myeloma cells; test: MTT cell viability assay; conditions: read-out: IC50 values (μM), cell viability
Procedure: as §2

[3] = system: SNU-449 liver cancer cells; test: MTT cell viability assay; conditions: read-out: IC50 values (μM), cell viability
Procedure: as §2

[4] = system: U87 glioblastoma cells; test: MTT cell viability assay; conditions: read-out: IC50 values (μM), cell viability
Procedure: as §2

[5] = system: Hep3B liver cancer cells; test: MTT cell viability assay; conditions: read-out: IC50 values (μM), cell viability
Procedure: as §2

[6] = system: U251 glioblastoma cells; test: MTT cell viability assay; conditions: read-out: IC50 values (μM), cell viability
Procedure: as §2

[7] = system: SNU-387 liver cancer cells; test: MTT cell viability assay; conditions: read-out: IC50 values (μM), cell viability
Procedure: as §2

[8] = system: SNU-398 liver cancer cells; test: MTT cell viability assay; conditions: read-out: IC50 values (μM), cell viability
Procedure: as §2

[9] = system: SW480 colorectal cancer cells; test: MTT cell viability assay; conditions: read-out: IC50 values (μM), cell viability
Procedure: as §2

[10] = system: U266 multiple myeloma cells; test: MTT cell viability assay; conditions: read-out: IC50 values (μM), cell viability
Procedure: as §2

[11] = system: STAT3 phosphorylation induced by IL-6 in MDA-MB-453 breast cancer cells; test: IL-6 induction of STAT3 phosphorylation; format: cell-based, human; conditions: MDA-MB-453, pretreatment 20 μM, IL-6 50 ng/mL 30 min
Procedure: After stimulation with IL-6 (50 ng/mL, Sigma) or IFN-γ (50 ng/mL, Sigma) for 30 min, the cells were harvested and analyzed by western blot.

[12] = system: P-STAT3(Y705) in U266 cells; test: Western blot, U266 cells; format: cell-based, human; conditions: U266, positive controls
Procedure: (§1) Membranes were analyzed with enhanced chemiluminescence Plus reagents (GE Healthcare) and scanned with a Storm PhosphorImager (Amersham Pharmacia Biotech Inc.).

[13] = system: Cleaved Caspase-3 in U266 cells; test: Western blot, U266 cells; format: cell-based, human; conditions: U266, positive controls
Procedure: as §1

[14] = system: Cleaved Caspase-3 in HCT-116 cells; test: Western blot, HCT-116 cells; format: cell-based, human; conditions: HCT116, positive controls
Procedure: as §1

[15] = system: P-STAT3(Y705) in HCT-116 cells; test: Western blot, HCT-116 cells; format: cell-based, human; conditions: HCT116, positive controls
Procedure: as §1

SMILES	IC50 ([1]; HCT-116 (C), MTT, 72 hours) [µM]	IC50 ([2]; ARH77 (MM), MTT, 72 hours) [µM]	IC50 ([3]; SNU-449 (L), MTT, 72 hours) [µM]	IC50 ([4]; U87 (G), MTT, 72 hours) [µM]	IC50 ([5]; Hep3B (L), MTT, 72 hours) [µM]	IC50 ([6]; U251 (G), MTT, 72 hours) [µM]	IC50 ([7]; SNU-387 (L), MTT, 72 hours) [µM]	IC50 ([8]; SNU-398 (L), MTT, 72 hours) [µM]	IC50 ([9]; SW480 (C), MTT, 72 hours) [µM]	IC50 ([10]; U266 (MM), MTT, 72 hours) [µM]	IC50 ([1]; Homo sapiens, HCT-116, 72 h) [µM]	IC50 ([2]; Homo sapiens, ARH-77, 72 h) [µM]	IC50 ([3]; Homo sapiens, SNU-449, 72 h) [µM]	IC50 ([4]; Homo sapiens, 72 h) [µM]	IC50 ([5]; Homo sapiens, Hep3B, 72 h) [µM]	IC50 ([6]; Homo sapiens, U-251, 72 h) [µM]	IC50 ([7]; Homo sapiens, SNU-387, 72 h) [µM]	IC50 ([8]; Homo sapiens, SNU-398, 72 h) [µM]	IC50 ([9]; Homo sapiens, SW480, 72 h) [µM]	IC50 ([10]; Homo sapiens, U-266, 72 h) [µM]	further results
N#C/C(=C/c1ccc(O)c(O)c1)C(=O)NCc1ccccc1 [AG490]	50.5	28.2	> 100	> 100	> 100	50.7	> 100	24.3	86.8	9.5											
COc1cc(/C=C/C(=O)CC(=O)/C=C/c2ccc(O)c(OC)c2)ccc1O [Curcumin]											10.9	10.1	9.88	6.91	68.1	7.1	25.5	5.37	10.3	4.76	inhibition of the induction of STAT3 phosphorylation by IL-6 [11]: not
Cc1ccc(S(=O)(=O)OCC(=O)Nc2ccc(C(=O)O)c(O)c2)cc1 [S3I-201]	> 100	35.2	> 100	55.1	> 100	97.3	> 100	16.2	> 100	8.87											
O=[N+]([O-])c1ccc2c(c1)S(=O)(=O)C=C2 [Stattic]	0.96	2.57	2.5	0.73	17.8	0.84	4.3	3.23	0.43	0.99											effect on STAT3 phosphorylation (in words) [12]: inhibit STAT3 phosphorylation; apoptosis indicated by cleavage of caspase-3 (in words) [13]: induce apoptosis; apoptosis indicated by cleavage of caspase-3 (in words) [14]: induce apoptosis; effect on STAT3 phosphorylation (in words) [15]: inhibit STAT3 phosphorylation
C[C@H](NC(=O)/C(C#N)=C/c1cccc(Br)n1)c1ccccc1 [WP1066]											1.51	3.43	3.85	5.78	10.2	5.04	5.17	4.88	1.98	1.38	effect on STAT3 phosphorylation (in words) [12]: inhibit STAT3 phosphorylation; apoptosis indicated by cleavage of caspase-3 (in words) [13]: induce apoptosis; apoptosis indicated by cleavage of caspase-3 (in words) [14]: induce apoptosis; effect on STAT3 phosphorylation (in words) [15]: inhibit STAT3 phosphorylation

From article PMC2936338 (Molecular Cancer, 2010)
